Results: patent US5162221A (Forschungszentrum Juelich GmbH, priority 1989, dated 1992)

Legend:
[1] = target: fructose-1,6-bisphosphate aldolase (F-1,6-BP aldolase) from Staphylococcus carnosus, class I, purified (Staphylococcus carnosus, UniProt Q07159); details: read-out: Km for F-1-P; cleavage of F-1-P to DHAP and glyceraldehyde; 37° C., pH 7.5
Experimental: Purified aldolase (40 μg/ml) was used for characterizing the enzyme, and 120 μg/ml were used for molecular weight determination.

[2] = tested on: O=C(COP(=O)(O)O)[C@@H](O)[C@H](O)[C@H](O)COP(=O)(O)O; assay: purified protein, by the assay type; details: other: cleavage of F-1,6-BP to DHAP and glyceraldehyde 3-phosphate, 37° C., pH 7.5

fructose-1,6-bisphosphate aldolase (F-1,6-BP aldolase) from Staphylococcus carnosus, class I, purified, sequence (Q07159 whole entry): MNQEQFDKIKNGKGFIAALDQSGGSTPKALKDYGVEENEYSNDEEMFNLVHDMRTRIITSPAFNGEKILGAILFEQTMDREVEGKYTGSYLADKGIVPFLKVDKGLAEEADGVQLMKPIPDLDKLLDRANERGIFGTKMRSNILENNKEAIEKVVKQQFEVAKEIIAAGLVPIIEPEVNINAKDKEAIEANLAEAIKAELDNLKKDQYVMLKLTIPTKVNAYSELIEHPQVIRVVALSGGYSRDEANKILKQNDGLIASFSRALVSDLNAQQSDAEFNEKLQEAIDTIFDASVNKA

Row | Molecule | Km [1] | Km [2]
1 | O=C(COP(=O)(O)O)[C@@H](O)[C@H](O)[C@H](O)CO [F-1-P] | 18.8 mM | 
2 | fructose-1,6-bisphosphate aldolase (F-1,6-BP aldolase) from Staphylococcus carnosus, class I, purified (Staphylococcus carnosus subsp. carnosus TM300) |  | 0.022 mM
